Where “and” joins values, the source holds several entries; their conditions need not be identical. Identical values can stand only once. Toxic doses and inconclusive results are not listed. Cut-off read from the data, not from the text of the source: active = T/C of 150% or more; inactive = T/C below 125%.
System: L1210 leukemia ip in BDF1 mice, survival T/C
Assay: NCI In Vivo Anticancer Drug Screen. Data for tumor model L1210 Leukemia (intraperitoneal) in B6D2F1 (BDF1) mice
Details: endpoint: mean survival time, higher = longer survival
Outline: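 Read-out is survival time, reported as the treated-group measurement over the vehicle-control measurement.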

[1] = dose: 100.0 mg/kg/injection, schedule: Q01DX009 (ip), vehicle: Klucel (hydroxypropylcellulose) (HPC)
[2] = dose: 100.0 mg/kg/injection, schedule: Q04DX003 (ip), vehicle: Klucel (hydroxypropylcellulose) (HPC)
[3] = dose: 200.0 mg/kg/injection, schedule: Q01DX009 (ip), vehicle: Klucel (hydroxypropylcellulose) (HPC)
[4] = dose: 200.0 mg/kg/injection, schedule: Q04DX003 (ip), vehicle: Klucel (hydroxypropylcellulose) (HPC)
[5] = dose: 400.0 mg/kg/injection, schedule: Q01DX009 (ip), vehicle: Klucel (hydroxypropylcellulose) (HPC)
[6] = dose: 400.0 mg/kg/injection, schedule: Q04DX003 (ip), vehicle: Klucel (hydroxypropylcellulose) (HPC)
[7] = dose: 100.0 mg/kg/injection, schedule: Q04DX002 (ip), vehicle: saline with Tween-80
[8] = dose: 200.0 mg/kg/injection, schedule: Q04DX002 (ip), vehicle: saline with Tween-80
[9] = dose: 400.0 mg/kg/injection, schedule: Q04DX002 (ip), vehicle: saline with Tween-80
[10] = dose: 100.0 mg/kg/injection, schedule: Q01DX001 (ip), vehicle: saline
[11] = dose: 200.0 mg/kg/injection, schedule: Q01DX001 (ip), vehicle: saline
[12] = dose: 100.0 mg/kg/injection, schedule: Q01DX001 (ip), vehicle: Klucel (hydroxypropylcellulose) (HPC)
[13] = dose: 200.0 mg/kg/injection, schedule: Q01DX001 (ip), vehicle: Klucel (hydroxypropylcellulose) (HPC)
[14] = dose: 400.0 mg/kg/injection, schedule: Q01DX001 (ip), vehicle: Klucel (hydroxypropylcellulose) (HPC)
[15] = dose: 100.0 mg/kg/injection, schedule: Q01DX001 (ip), vehicle: other
[16] = dose: 200.0 mg/kg/injection, schedule: Q01DX001 (ip), vehicle: other
[17] = dose: 400.0 mg/kg/injection, schedule: Q01DX001 (ip), vehicle: other
[18] = dose: 100.0 mg/kg/injection, schedule: Q04DX002 (ip), vehicle: Klucel (hydroxypropylcellulose) (HPC)
[19] = dose: 200.0 mg/kg/injection, schedule: Q04DX002 (ip), vehicle: Klucel (hydroxypropylcellulose) (HPC)
[20] = dose: 400.0 mg/kg/injection, schedule: Q04DX002 (ip), vehicle: Klucel (hydroxypropylcellulose) (HPC)
[21] = dose: 100.0 mg/kg/injection, schedule: Q01DX009 (ip), vehicle: saline
[22] = dose: 100.0 mg/kg/injection, schedule: Q01DX009 (ip), vehicle: saline with Tween-80
[23] = dose: 200.0 mg/kg/injection, schedule: Q01DX009 (ip), vehicle: saline with Tween-80

Measured: T/C

CCc1nc(N)nc(N)c1-c1ccc(Cl)cc1
inactive: dose: 22.0 mg/kg/injection, schedule: Q01DX Z (ip), vehicle: carboxymethylcellulose (CMC) 120 % of control | dose: 25.0 mg/kg/injection, schedule: Q01DX015 (ip), vehicle: carboxymethylcellulose (CMC) 110 % of control | dose: 35.0 mg/kg/injection, schedule: Q01DX Z (ip), vehicle: carboxymethylcellulose (CMC) 118 % of control | dose: 50.0 mg/kg/injection, schedule: Q01DX015 (ip), vehicle: carboxymethylcellulose (CMC) 116 % of control | dose: 75.0 mg/kg/injection, schedule: Q01DX Z (ip), vehicle: carboxymethylcellulose (CMC) 91 % of control | dose: 200.0 mg/kg/injection, schedule: Q01DX015 (ip), vehicle: carboxymethylcellulose (CMC) 104 % of control

O=C(Nc1ccccc1-c1ccc([N+](=O)[O-])cc1)c1ccc(Cl)c(Cl)c1
inactive: dose: 100.0 mg/kg/injection, schedule: Q04DX003 (ip), vehicle: water 93 % of control | dose: 200.0 mg/kg/injection, schedule: Q04DX003 (ip), vehicle: water 93 % of control | dose: 400.0 mg/kg/injection, schedule: Q04DX003 (ip), vehicle: water 93 % of control

O=C(Oc1ccccc1Cl)c1ccc(Cl)c(Cl)c1
inactive: [1] 98 % of control | [2] 95 % of control | [3] 93 % of control | [4] 90 % of control | [5] 90 % of control | [6] 90 % of control

O=C(O)CNC(=O)C(CSCc1ccccc1)NC(=O)OCc1ccccc1 (centres undefined)
inactive: [2] 97 % of control | [6] 86 % of control

COc1cc(C=Nc2ccc(C)c(C)c2)ccc1OC(=O)c1ccccc1
inactive: [7] 106 % of control | [8] 106 % of control | [9] 95 % of control

CCOC(=O)N1C(=O)NC(=O)C1c1ccc(Cl)cc1 (centres undefined)
inactive: dose: 50.0 mg/kg/injection, schedule: Q01DX001 (ip), vehicle: saline 96 % of control | [10] 112 % of control | [11] 100 % of control

C/C(=N\N=C(N)N)c1ccc(NC(N)=S)cc1
inactive: dose: 20.0 mg/kg/injection, schedule: Q01DX005 (ip), vehicle: saline 106 % of control | dose: 40.0 mg/kg/injection, schedule: Q01DX005 (ip), vehicle: saline 97 % of control

O=C1CCCCCCCCCC/C1=N/O
inactive: [12] 111 % of control | [13] 101 % of control | [14] 92 % of control

O=C1CCCCC12CCCC2
inactive: dose: 100.0 mg/kg/injection, schedule: Q01DX009 (ip), vehicle: saline sonified 97 % of control | dose: 200.0 mg/kg/injection, schedule: Q01DX009 (ip), vehicle: saline sonified 103 % of control | dose: 400.0 mg/kg/injection, schedule: Q01DX009 (ip), vehicle: saline sonified 93 % of control

O=S(=O)(O)c1cccc2cccc(N=Nc3ccc(O)cc3)c12
inactive: [15] 94 % of control | [16] 103 % of control | [17] 94 % of control

CCCCCOC(=O)C(C(=O)OCCCCC)(C(=O)OCCCCC)C(=O)OCCCCC
inactive: [10] 100 % of control | [11] 104 % of control | dose: 400.0 mg/kg/injection, schedule: Q01DX001 (ip), vehicle: saline 95 % of control

CCOC(=O)c1ccc(Nc2sc(C(=O)c3cccc([N+](=O)[O-])c3)c(N)c2C#N)cc1
inactive: [18] 101 % of control | [19] 92 % of control | [20] 92 % of control

CCC1CN1P(=O)(N(CC)CC)N1CC1CC (centres undefined)
inactive: dose: 29.0 mg/kg/injection, schedule: Q01DX015 (ip), vehicle: saline 100 % of control | dose: 44.0 mg/kg/injection, schedule: Q01DX015 (ip), vehicle: saline 105 % of control | dose: 66.0 mg/kg/injection, schedule: Q01DX015 (ip), vehicle: saline 109 % of control | dose: 89.0 mg/kg/injection, schedule: Q01DX001 (ip), vehicle: saline 111 % of control | [10] 103 % of control | [21] 107 % of control | dose: 100.0 mg/kg/injection, schedule: Q01DX015 (ip), vehicle: saline 110 % of control | dose: 133.0 mg/kg/injection, schedule: Q01DX001 (ip), vehicle: saline 119 % of control | dose: 150.0 mg/kg/injection, schedule: Q01DX009 (ip), vehicle: saline 107 % of control | [11] 121 % of control

COc1c(Cl)c(Cl)c(Cl)c(Cl)c1Cl
inactive: [21] 89 % of control | dose: 100.0 mg/kg/injection, schedule: Q04DX003 (ip), vehicle: acetone 95 % of control | dose: 200.0 mg/kg/injection, schedule: Q01DX009 (ip), vehicle: saline 89 % of control | dose: 200.0 mg/kg/injection, schedule: Q04DX003 (ip), vehicle: acetone 94 % of control | dose: 400.0 mg/kg/injection, schedule: Q04DX003 (ip), vehicle: acetone 96 % of control

N=C(N)SC/C=C/CSC(=N)N
inactive: dose: 25.0 mg/kg/injection, schedule: Q04DX003 (ip), vehicle: saline 106 % of control | dose: 50.0 mg/kg/injection, schedule: Q04DX003 (ip), vehicle: saline 96 % of control | dose: 100.0 mg/kg/injection, schedule: Q04DX003 (ip), vehicle: saline 103 % of control and 88 % of control

CC1=CC(O)C(C(C)C)C1 (centres undefined)
inactive: [15] 102 % of control | [16] 98 % of control | [17] 98 % of control

O=C(O)c1ccccc1C(=O)OO
inactive: dose: 50.0 mg/kg/injection, schedule: Q01DX009 (ip), vehicle: saline with Tween-80 97 % of control | [22] 97 % of control | [23] 97 % of control

CCOC(=O)C(C)(C)C(C)=O
inactive: [1] 99 % of control | [2] 103 % of control | [3] 99 % of control | [4] 103 % of control | [5] 95 % of control | [6] 97 % of control

CCN(CC)C(C)C(=O)c1ccc2cc(Br)c3ccccc3c2c1 (centres undefined)
inactive: dose: 222.0 mg/kg/injection, schedule: Q01DX Z (ip), vehicle: methylcellulose (MC) 97 % of control | dose: 333.0 mg/kg/injection, schedule: Q01DX Z (ip), vehicle: methylcellulose (MC) 104 % of control | dose: 500.0 mg/kg/injection, schedule: Q01DX Z (ip), vehicle: methylcellulose (MC) 87 % of control

CCOc1ccc(OC/C=C(\C)CCC=C(C)C)cc1
inactive: [22] 103 % of control | [7] 101 % of control | [23] 92 % of control | [8] 94 % of control | [9] 94 % of control

CC(C)=NOC(N)=O
inactive: dose: 50.0 mg/kg/injection, schedule: Q01DX Z (ip), vehicle: water 108 % of control | dose: 100.0 mg/kg/injection, schedule: Q01DX Z (ip), vehicle: water 100 % of control | dose: 200.0 mg/kg/injection, schedule: Q01DX Z (ip), vehicle: water 100 % of control | dose: 400.0 mg/kg/injection, schedule: Q01DX Z (ip), vehicle: water 100 % of control

CC(C)(C)S(=O)(=O)CCCl
inactive: dose: 75.0 mg/kg/injection, schedule: Q01DX009 (ip), vehicle: Klucel (hydroxypropylcellulose) (HPC) 93 % of control | dose: 100.0 mg/kg/injection, schedule: Q01DX005 (ip), vehicle: Klucel (hydroxypropylcellulose) (HPC) 96 % of control | [18] 88 % of control | dose: 150.0 mg/kg/injection, schedule: Q01DX009 (ip), vehicle: Klucel (hydroxypropylcellulose) (HPC) 93 % of control | dose: 200.0 mg/kg/injection, schedule: Q01DX005 (ip), vehicle: Klucel (hydroxypropylcellulose) (HPC) 100 % of control | [19] 100 % of control | dose: 300.0 mg/kg/injection, schedule: Q01DX009 (ip), vehicle: Klucel (hydroxypropylcellulose) (HPC) 96 % of control | dose: 400.0 mg/kg/injection, schedule: Q01DX005 (ip), vehicle: Klucel (hydroxypropylcellulose) (HPC) 100 % of control | [20] 100 % of control

COC(=O)C(CCC#N)(CCC#N)C(C)=O
inactive: [12] 96 % of control | [13] 91 % of control | [14] 89 % of control

Source: PubChem BioAssay AID248 (DTP/NCI, 2004)
